Laboratory results: paper PMC6150212, “New Biflavonoids with α-Glucosidase and Pancreatic Lipase Inhibitory Activities from Boesenbergia rotunda” (Molecules : A Journal of Synthetic Chemistry and Natural …, 2017)
Where two headings read alike, the source gives them in different places.

Experiments:
[1] = target: Yeast α-glucosidase enzyme; assay: α-Glucosidase inhibitory activity assay (PNPG hydrolysis); format: biochemical
Protocol: (§1) Optical rotations were obtained with a Perkin-Elmer 341 polarimeter (Boston, MA, USA). UV spectra were measured on a Milton Roy Spectronic 300 Array spectrophotometer, and IR was recorded on a Perkin-Elmer FT-IR 1760x spectrophotometer (Boston, MA, USA). High-resolution electrospray ionization mass spectra (HR-ESI-MS) were recorded with a Bruker micro TOF mass spectrometer (Billerica, MA, USA). NMR spectra were obtained with a Bruker Avance DPX-300 FT-NMR spectrometer (Billerica, MA, USA). Vacuum liquid chromatography (VLC) and column chromatography (CC) were performed on silica gel 60 (Merck, 70–230 µm, Darmstadt, Germany), silica gel 60 (Merck, […]) or Sephadex LH-20 (Pharmacia, Piscataway, NJ, USA). Yeast α-glucosidase enzyme, p-nitrophenol-α-D-glucopyranoside, pancreatic lipase, and 4-methylumbelliferyl oleate were purchased from Sigma Chemical, Inc. (St. Louis, MO, USA), and acarbose from Fluka Chemical (Buchs, Switzerland).
(§2) The assay was based on the capacity of the sample to inhibit the hydrolysis of p-nitrophenyl-α-D-glucoside (PNPG) by α-glucosidase to release p-nitrophenol (PNP), a yellow color agent that can be monitored at 405 nm. Briefly, 10 μL of sample solution and 40 μL of 0.1 unit/mL α-glucosidase were incubated at 37 °C for 10 min. Then, 50 μL of 2 mM PNPG was added, and the mixture was further incubated at 37 °C for 20 min. One hundred microliters of 1 mM Na2CO3 was added, and the progress of the enzyme inhibition was monitored by measuring the absorbance at 405 nm. Acarbose was used as a positive control.

[2] = system: Yeast α-glucosidase enzyme; assay: Kinetic study of α-glucosidase inhibition (Lineweaver-Burk and secondary plots); format: biochemical; conditions: for Mode of inhibition of α-glucosidase / Km: Lineweaver-Burk plot; for Ki: from secondary plot, read-out: α-Glucosidase inhibition constant (Ki); for Km: PNPG substrate, read-out: Michaelis-Menten constant, Km (x-axis intersection), α-glucosidase
Protocol: as §2
(§3) An enzyme kinetic analysis was performed based on the α-glucosidase or lipase inhibition assay as described above. The PNPG concentrations varied from 1 to 4 mM, and the 4-MUO concentrations varied from 0.063 to 1 mM in the absence or presence of the test compounds for kinetic assays of α-glucosidase and lipase, respectively. The inhibition mode was determined by double-reciprocal Lineweaver-Burk plot (1/V vs. 1/[S]). In order to estimate the Ki value, slopes of double-reciprocal lines were used to construct a secondary plot, and Ki was calculated from the line equation of the plot.

[3] = target: T1, lipase from porcine pancreas (Type II) (Sus scrofa, UniProt P00591); assay: Lipase inhibitory activity assay (4MUO substrate); format: biochemical
T1 construct: lipase from porcine pancreas (Type II); purchased Sigma Chemical, Inc. (St. Louis, MO, USA); host or cells: porcine pancreas
T1 sequence (P00591 1-450): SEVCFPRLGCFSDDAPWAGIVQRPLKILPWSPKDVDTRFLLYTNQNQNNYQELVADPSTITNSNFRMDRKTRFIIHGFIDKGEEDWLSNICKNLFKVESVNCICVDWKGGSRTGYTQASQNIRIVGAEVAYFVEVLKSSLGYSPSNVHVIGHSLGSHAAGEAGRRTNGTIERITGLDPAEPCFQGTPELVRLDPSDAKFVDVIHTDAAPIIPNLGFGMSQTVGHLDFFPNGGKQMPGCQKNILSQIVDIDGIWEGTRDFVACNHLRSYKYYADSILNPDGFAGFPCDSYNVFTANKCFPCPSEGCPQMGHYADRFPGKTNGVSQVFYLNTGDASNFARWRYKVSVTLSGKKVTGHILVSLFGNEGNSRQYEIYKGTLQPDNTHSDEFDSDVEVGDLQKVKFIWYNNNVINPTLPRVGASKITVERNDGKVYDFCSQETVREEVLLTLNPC
Protocol: as §1
(§4) The lipase inhibitory activity was assessed by measuring the amount of 4-methylumbelliferone (4MU), using 4-methylumbelliferyl oleate (4MUO) as substrate. The assay was modified from a previously reported method. In brief, 25 μL of a blank, plant extract vehicle, or a sample solution and 50 μL of 0.5 mM 4MUO in buffer consisting of 13 mM Tris-HCl, 150 mM NaCl, and 1.3 mM CaCl2 (pH 8.0), were mixed in 96-well microtiter plate. Twenty-five microliters of lipase from porcine pancreas (Type II), prepared at 0.5 mg/mL in the same buffer, was then added to start the enzyme reaction. After incubation at room temperature for 30 min, 100 μL of 0.1 M sodium citrate (pH 4.2) was added to stop the reaction. Fluorescence, corresponding to released 4MU, was then measured with excitation and emission wavelengths of 355 and 460 nm, respectively.

[4] = system: high-fat-diet (HFD)-induced obesity; set-up: method as in PMID 22312299, PMID 21320266; conditions: mice; by activating AMPK; cited from earlier work
[5] = target: T1, lipase from porcine pancreas (Type II); assay: Kinetic study of lipase inhibition (Lineweaver-Burk and secondary plots); format: biochemical; conditions: for Mode of inhibition of lipase: Lineweaver-Burk plot; for Ki: from secondary plot
Protocol: as §4, §3

Row | IC50 [1] [µM] | α-Glucosidase % Inhibition (at 20 µg/mL) [1] [%] | inhibition at 20 µg/mL [3] [%] | Compound | also measured
1 | – | 9.6 ± 4.0 | 30.6 ± 2 | CC(C)=CCC/C(C)=C/CO [Compound 2, Geraniol] | –
2 | 12.7 ± 1.3 | 94.7 ± 0.4 | 72.3 ± 0.1 | COc1cc(O)c(C(=O)[C@@H]2[C@H](CC=C(C)C)C(C)=CC[C@H]2c2ccccc2)c(O)c1 [Compound 3, Panduratin A] | IC50 [3]: 17.1 ± 3.7 µM; Effect on high-fat-diet (HFD)-induced obesity [4]: attenuate high-fat-diet (HFD)-induced obesity
3 | – | 19.7 ± 0.9 | 7.7 ± 1.9 | COc1cc(O)cc(O)c1C(=O)/C=C/c1ccccc1 [Compound 6, Cardamonin] | –
4 | 2.4 ± 0.4 | 100.0 ± 0.0 | 69.1 ± 1.6 | COc1cc(O)c(C(=O)CC(c2ccccc2)c2c(O)cc3c(c2O)C(=O)CC(c2ccccc2)O3)c(O)c1 (stereo not shown) [Compound 9, rotundaflavanochalcone] | IC50 [3]: 25.8 ± 2.6 µM; Mode of inhibition of α-glucosidase [2]: non-competitive; Km [2]: 470 µM; Ki [2]: 7.19 µM; Mode of inhibition of lipase [5]: non-competitive; Ki [5]: 3.55 µM
5 | 3.4 ± 0.9 | 100.0 ± 0.2 | 67.8 ± 1.3 | COc1cc(O)cc(O)c1C(=O)CC(c1ccccc1)c1c(O)cc2c(c1O)C(=O)CC(c1ccccc1)O2 (stereo not shown) [Compound 12, iso-rotundaflavanochalcone] | IC50 [3]: 30.1 ± 2.3 µM
6 | 1.3 ± 0.2 | 100.0 ± 0.1 | 80.5 ± 0.6 | O=C(CC(c1ccccc1)c1c(O)cc2c(c1O)C(=O)CC(c1ccccc1)O2)c1c(O)cc(O)cc1O (stereo not shown) [Compound 13, de-O-methyl rotundaflavanochalcone] | IC50 [3]: 10.6 ± 1.2 µM
7 | – | 20.9 ± 2.1 | 44.7 ± 1.7 | COc1cc(O)cc2c1C(=O)CC(c1ccc(O)cc1)O2 (stereo not shown) [Compound 15, 4′-7-Dihydroxy-5-methoxyflavanone] | –

Further lines, the compound ahead of its results:

Row | Compound | IC50 [1] [µM] | α-Glucosidase % Inhibition (at 20 µg/mL) [1] [%] | inhibition at 20 µg/mL [3] [%] | also measured
8 | C[C@H]1O[C@H](O[C@H]2[C@H](O)[C@@H](O)[C@@H](O[C@H]3[C@H](O)[C@@H](O)C(O)O[C@@H]3CO)O[C@@H]2CO)[C@H](O)[C@@H](O)[C@@H]1N[C@H]1C=C(CO)[C@@H](O)[C@H](O)[C@H]1O (stereo partly shown) [Acarbose, reference compound] | 1160 ± 23 | – | – | IC50 ([1]; rounded value): 1200 µM; Mode of inhibition of α-glucosidase [2]: competitive; Ki [2]: 167 µM
9 | COc1cc(O)c2c(c1)O[C@H](c1ccccc1)CC2=O [Compound 1, Pinostrobin] | – | 10.0 ± 2.9 | 7.9 ± 0.8 | –
10 | COc1cc(O)cc(O)c1C(=O)C1C(CC=C(C)C)C(C)=CCC1c1ccccc1 (stereo not shown) [Compound 4, Isopanduratin A] | 7.5 ± 0.6 | 97.8 ± 0.8 | 75.2 ± 1.1 | IC50 [3]: 15.1 ± 3.3 µM; Mode of inhibition of lipase [5]: mixed-type; Ki [5]: 5.79 µM
11 | O=C1C[C@@H](c2ccccc2)Oc2cc(O)cc(O)c21 [Compound 5, Pinocembrin] | – | 19.8 ± 0.1 | 3.7 ± 1.3 | –
12 | CC(C)=CC[C@@H]1C(C)=CC[C@@H](c2ccccc2)[C@@H]1C(=O)c1c(O)cc(O)cc1O [Compound 7, Hydroxypanduratin A] | 4.6 ± 0.4 | 98.5 ± 0.4 | 49.3 ± 2.7 | Mode of inhibition of α-glucosidase [2]: non-competitive; Km [2]: 460 µM; Ki [2]: 4.03 µM
13 | COc1cc(/C=C/c2ccccc2)oc(=O)c1 [Compound 8, 5,6-Dehydrokawain] | – | 9.5 ± 2.5 | 33.7 ± 1 | –
14 | O=C(CCc1ccccc1)c1c(O)cc(O)cc1O [Compound 10, 2′,4′,6′-Trihydroxydihydrochalcone] | 32 ± 2.2 | 88.1 ± 0.9 | 48.7 ± 3.5 | –
15 | COc1cc(O)cc(O)c1C(=O)/C=C/c1ccc(O)cc1 [Compound 14, 4,4′,6′-trihydroxy-2′-methoxychalcone] | – | 97.1 ± 0.5 | 70.9 ± 2 | –
16 | CCCCCCCCCCC[C@@H](C[C@@H]1OC(=O)[C@H]1CCCCCC)OC(=O)[C@H](CC(C)C)NC=O [Orlistat, reference compound] | – | – | – | Mode of inhibition of lipase [5]: competitive
17 | Alpinetin [Compound 11] | – | 7.0 ± 2.0 | – | Lipase % Inhibition (at 20 µg/mL) ([3]; at 20 µg/mL): 8.0 ± 1.9%
